Experimental findings from paper PMC9136971 (ACS Central Science, 2022) are described below.

A short description of data set [1]: DLS size distribution and zeta potential of nanoaggregates. Conditions: without gzmB cleavage. The format is physicochemical.
Another data set relates to A20Luc+ cells. Briefly: Cell viability assay. In kind it is cell-based, mouse. Conditions: 5 μM – 100 μM, 37 °C, 3.5 h, absorbance at 490 nm.
For data set [2], the system named is activated untransduced CD8+ T cells. Briefly: Cell viability assay. The format is cell-based, mouse. Conditions: 5 μM – 100 μM, 37 °C, 3.5 h, absorbance at 490 nm.
Another data set relates to CAR T cells. Description: Cell viability assay. In kind it is cell-based, mouse. Conditions: 5 μM – 100 μM, 37 °C, 3.5 h, absorbance at 490 nm.
Data set [3] can be described thus: Baseline uptake and biodistribution study in healthy mice. The format is in vivo, mouse. Conditions: for baseline bioluminescence distribution: healthy Fluc+ BALB/c mice, D-luciferin 3 mg i.p., GBLI2 200 μg i.v. retro-orbital.
The test system of data set [4] is untransduced activated CD8+ T cells. Briefly: Cellular uptake assay. Conditions: 5 μM, pre-incubation 30 min, 2.5 h at 4 or 37 °C, flow cytometry. The format is cell-based, mouse.

Where a SMILES comes first, the peptide text is derived from it. The star is where a group is joined. X1 = O=C(O)[C@H]1CSC(c2nc3ccc(OCc4ccc(N*)cc4)cc3s2)=N1

As to “(4S,10R,13S,16S,19S)-19-((2S,3S)-2-acetamido-3-methylpentanamido)-16-benzyl-13(carboxymethyl)-1-(4-((3-((2-cyanopyrimidin-5-yl)oxy)propyl)carbamoyl)phenyl)-10-((ethylsulfinothioyl)methyl)-3,6,9,12,15,18-hexaoxo-4-(prop-2-yn-1-yl)-2,5,8,11,14,17-hexaazadocosan-22-oic acid [G-SNAT]”, in data set [1], the “DLS signal of G-SNAT uncleaved by gzmB” value was “No DLS signal could be detected”. Moreover, the “cell viability (MTS)” value (with A20Luc+ cells; in data set [2]; in the data set on CAR T cells) was “well tolerated” throughout.
As for `CC[C@H](C)[C@H](NC(C)=O)C(=O)N[C@@H](CCC(=O)O)C(=O)N[C@@H](Cc1ccccc1)C(=O)N[C@@H](CC(=O)O)C(=O)Nc1ccc(COc2ccc3nc(C4=N[C@@H](C(=O)O)CS4)sc3c2)cc1` [GBLI2] (Ac-IEFD-X1), in data set [3], the baseline bioluminescence distribution entry is “highly concentrated in the spleen”.
The same measure, in the same setting: then `O=C([O-])[C@H]1CSC(c2nc3ccc(O)cc3s2)=N1.[K+]` [D-luciferin, D-luciferin, potassium salt], with “mainly restricted to the abdomen”.
On to `CCSSC[C@H](NC(=O)[C@H](CC(=O)O)NC(=O)[C@H](Cc1ccccc1)NC(=O)[C@H](CCC(=O)O)NC(=O)[C@@H](NC(C)=O)[C@@H](C)CC)C(=O)NCC(=O)N[C@@H](Cc1cn(CCCNC(=O)CCCCC[N+]2=C(/C=C/C=C/C=C3/N(C)c4ccc(S(=O)(=O)[O-])cc4C3(C)C)C(C)(C)c3cc(S(=O)(=O)O)ccc32)nn1)C(=O)NCc1ccc(C(=O)NCCCOc2cnc(C#N)nc2)cc1` [G-SNAT-Cy5], for which, in data set [4], the “G-SNAT-Cy5 uptake at 4 °C versus 37 °C (MFI-Cy5 of viable cells)” value is listed as “significantly attenuated”. In addition, the “cell viability (MTS)” value (in the data set with A20Luc+ cells; in data set [2]; in the data set on CAR T cells) was “well tolerated” in each case. In addition, the “organ distribution of fluorescence after dissection” value in data set [3] (5 nmol retro orbital, 1 h post i.v. injection, organ imaging, n = 3) was “mainly associated with the gastrointestinal tract”.
